Measurements from the supplement of paper PMC10307832.

Key:
Test in all cases: relative viability (nuclei count vs DMSO), 5 days (fraction); higher = more cells survive
[1] = compound: O[C@@H](COc1cccc2ncccc12)CN1CCN([C@@H]2c3ccccc3[C@@H]3[C@H](c4ccccc42)C3(F)F)CC1 [Zosuquidar] + COc1cccc2cc(-c3nc([C@H]4CC[C@H](C(=O)O)CC4)n4ncnc(N)c34)[nH]c12 [OSI-027] (partner 0.5 µM)
Procedure, shortened: (§1)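 Lung cancer cell lines in 1536-well plates were dosed by pin tool the day after seeding, either with one drug alone or with a fixed anchor-drug dose plus five library-drug doses (not always all listed) in √10 steps. After 5 days, cells were fixed and their nuclei stained in one step (final 0.05% Triton X-100, 1% formaldehyde, 1 ug/ml Hoechst), then counted on 4× images. Relative viability is the nuclei count in treated wells divided by that in vehicle wells. Values are medians of duplicate plates.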

[2] = compound: C1=CC(=CC=C1NC(=S)NNC2=C(C=C(C=C2[N+](=O)[O-])C(F)(F)F)[N+](=O)[O-])F [Kobe2602] + CCNC(=O)c1noc(-c2cc(C(C)C)c(O)cc2O)c1-c1ccc(CN2CCOCC2)cc1 [Luminespib] (partner 0.01 µM)
Procedure, shortened: as §1

[3] = compound: COc1cc2nccc(Oc3ccc(NC(=O)C4(C(=O)Nc5ccc(F)cc5)CC4)cc3)c2cc1OC [Cabozantinib] + CC1(C)CCC(c2ccc(Cl)cc2)=C(CN2CCN(c3ccc(C(=O)NS(=O)(=O)c4ccc(N[C@H](CCN5CCOCC5)CSc5ccccc5)c(S(=O)(=O)C(F)(F)F)c4)cc3)CC2)C1 [Navitoclax] (partner 0.5 µM)
Procedure, shortened: as §1

[4] = compound: C1=CC(=CC=C1NC(=S)NNC2=C(C=C(C=C2[N+](=O)[O-])C(F)(F)F)[N+](=O)[O-])F [Kobe2602] + CS(=O)(=O)CCNCc1ccc(-c2ccc3ncnc(Nc4ccc(OCc5cccc(F)c5)c(Cl)c4)c3c2)o1 [Lapatinib] (partner 2 µM)
Procedure, shortened: as §1

Cell Line | relative viability ([1]; first compound 0.01 µM) | relative viability ([1]; first compound 0.03162 µM) | relative viability ([1]; first compound 0.1 µM) | relative viability ([1]; first compound 0.3162 µM) | relative viability ([1]; first compound 1 µM) | relative viability ([2]; first compound 0.2 µM) | relative viability ([2]; first compound 0.6325 µM) | relative viability ([2]; first compound 2 µM) | relative viability ([2]; first compound 6.325 µM) | relative viability ([2]; first compound 20 µM) | relative viability ([3]; first compound 0.02 µM) | relative viability ([3]; first compound 0.06325 µM) | relative viability ([3]; first compound 0.2 µM) | relative viability ([3]; first compound 0.6325 µM) | relative viability ([3]; first compound 2 µM) | relative viability ([4]; first compound 0.2 µM) | relative viability ([4]; first compound 0.6325 µM) | relative viability ([4]; first compound 2 µM) | relative viability ([4]; first compound 6.325 µM) | relative viability ([4]; first compound 20 µM)
NCI-H460 | 0.674 | 0.725 | 0.522 | 0.788 | 0.694 | 0.0275 | 0.0348 | 0.0337 | 0.0344 | 0.0251 | 1.46 | 1.39 | 1.09 | 1.11 | 1.24 | 0.962 | 0.983 | 1.06 | 1 | 0.999
NCI-H1944 | 0.381 | 0.384 | 0.328 | 0.479 | 0.412 | 0.74 | 0.801 | 0.608 | 0.739 | 0.645 | – | 1.08 | 0.972 | 0.969 | 0.921 | 0.878 | 0.944 | 0.837 | 0.857 | 0.787
HOP-62 | 0.768 | 0.833 | 0.817 | 0.865 | 0.906 | 0.933 | 0.957 | 0.866 | 0.88 | 0.87 | 1.13 | 0.987 | 1.07 | 1.05 | 1.13 | 1.06 | 1.04 | 0.951 | 0.94 | 1.04
NCI-H3122 | 0.921 | 1.03 | – | 1.36 | 0.936 | 0.074 | 0.0661 | 0.0867 | 0.102 | 0.0834 | 0.988 | 1.03 | 0.987 | 1.03 | 1.02 | 1.04 | 0.981 | 1 | 1.03 | 1.06
